Laboratory results published in patent US20050100507A1, “Chemotactic peptide antagonists for imaging sites of inflammation” (Bracco Imaging S.p.A., priority 1998, published 2005).
Square brackets hold non-standard residues; d marks the D form. Ends that are not written are not given here. * marks the point of attachment. Acetyl(9-fluorenyl) = O=C(CC1c2ccccc2-c2ccccc21)*; N,N‑diphenylcarbamoyl = O=C(N(c1ccccc1)c1ccccc1)*; N,N‑diethylcarbamoyl = CCN(CC)C(=O)*; Cyclopropanecarbonyl = O=C(C1CC1)*; Nle = CCCC[C@H](N)C(=O)O

Key:
[1] = target: T1, Rat FPR (Rattus norvegicus, UniProt D4A7Q2); assay: Competition binding with 6 nM 3H-fMLF to elicited rat PMNs; details: for competition binding of N-terminal modified NleLFK peptides (FIG. 8): peptides at 1 uM and 10 uM
T1 construct: endogenous in cells; host or cells: glycogen-elicited peritoneal neutrophils (PMNs) of Sprague-Dawley rats
T1 sequence (D4A7Q2 1-355): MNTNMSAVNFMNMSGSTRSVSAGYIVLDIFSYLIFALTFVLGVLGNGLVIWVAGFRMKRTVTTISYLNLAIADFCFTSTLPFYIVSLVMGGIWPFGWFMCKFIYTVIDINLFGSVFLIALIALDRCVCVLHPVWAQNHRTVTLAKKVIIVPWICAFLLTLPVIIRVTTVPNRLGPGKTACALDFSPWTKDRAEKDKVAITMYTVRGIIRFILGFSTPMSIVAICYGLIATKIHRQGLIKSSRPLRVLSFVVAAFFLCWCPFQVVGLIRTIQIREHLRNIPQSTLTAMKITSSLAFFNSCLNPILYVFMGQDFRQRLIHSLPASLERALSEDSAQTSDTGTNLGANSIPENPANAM
Procedure: (§1) Animals were sacrificed via administration of CO2 4 hours following peritoneal injection of 10 mL of 0.5% (w/v) oyster glycogen warmed to room temperature. Leukocyte harvesting via peritoneal lavage was performed using 20 mL of Hanks' buffered salt solution (HBSS−) containing 10 mM ethylene-diaminetetra-acetic acid (EDTA) disodium salt followed by a second lavage with 10 mL of HBSS− containing 10 mM EDTA. Exactly the same technique was performed on all rats with washes of the peritoneum prior to aspiration of samples approximating 1 minute. The volume of fluid recovered from each rat was approximately 20-25 mL and bloody lavages visibly containing significant red blood cell (RBC) populations were discarded.
(§2) Neutrophils isolated by peritoneal lavage were washed twice with 1 mL of HBSS− (without calcium chloride, magnesium chloride and magnesium sulfate) and centrifuged for ten minutes at 2000 rpms following each wash. PMNs utilized in functional assays were centrifuged at 25° C. while those used in binding assays were centrifuged at 4° C. to prevent internalization. A cold H2O RBC lysis was then performed with the addition of 9 mL of sterile ice-cold H2O and 1 mL of phosphate buffered saline (PBS) solution containing 0.1 M phosphate buffer, 0.027 M KCl and 1.37 M NaCl following resuspension of the sample in 1 mL of HBSS. Centrifugation was subsequently performed for ten minutes at 1600 rpms. White blood cell (WBC) differential stain containing saline, 2% acidic acid and phenol violet dye was used to identify the neutrophil population and trypan blue exclusion was used to determine viability of cells. As previously reported, 98% of leukocytes were neutrophils and approximately 95% of the cells were viable (Chen et al., 1996).
Competition binding assays for N-terminal capping groups and Re-libraries were conducted with 6 nM ^3H-fMLP in addition to the unlabelled competing analogue added at 1.0 uM and 10 uM to each well. […] Total binding in the competition assays was assessed in the presence of 1.0×10^6 PMNs per sample while non-specific binding was determined in the absence of cells. Each condition was performed in quadruplicate. Total activity added to each sample was determined from cpms obtained from a sample containing 6 nM ^3H-fMLF. Data was expressed as specific binding in fmols and converted to percent of total ^3H-fMLF binding (% control).
After a 1 hour incubation period at 4° C., the samples were harvested with the Tomtec Mach III Cell Harvester by vacuum aspiration onto 1.5 um pore size Skatron glass-fibre filter mats pre-treated with 0.1% polyethylenimine (w/v) for approximately 24 hours. Sample wells received three consecutive 12 second washes with 0.9% saline solution and 5 mL of liquid scintillation fluid was added to collected filters. Filters were counted for 2 minutes in the Beckman β-counter following exposure to scintillation fluid for 15 hours. Data was expressed in terms of specific binding in fmols converted to percent of total ^3H-fMLF binding (% control).
(§3) The curve-fitting program Prism was used to calculate KD, IC50 and EC50 values by fitting data to the one-site binding equations A, B and C respectively. • A. Equation: One site binding (hyperbola) Y=Bmax*X/(KD+X) • B. Equation: One site competition Y=Bottom+(Top−Bottom)/(1+10^(X−LogIC50)); with x=log (concentration) and y=binding • C. […] Additionally, Graph fit software was used to perform Scatchard analysis of saturation binding data and to confirm KD and Bmax values generated by Prism software.

[2] = tested on: human neutrophils; assay: Myeloperoxidase release from human neutrophils; format: cell-based; details: result in words; for inhibition of MPO release in fMLF-stimulated human neutrophils (FIG. 4): 10 uM compound, fMLF 10^−8 M and 10^−6 M, p<0.05; for stimulation of MPO release by the compound itself in human neutrophils: up to 10 uM compound, low fMLF (10^−14M, 10^−12M)
Procedure: Approximately 30 mL of venous blood was collected from healthy volunteers with 100 units of heparin per mL of blood. Samples were then mixed with 8 mL of 6% dextran solution and incubated at 37° C. for 1 hour for RBC sedimentation. Leukocyte-rich plasma was collected and centrifuged at 1500 rpm for 5 minutes. Cell pellets were resuspended in 35 mL of saline and 10 mL of lymphocyte separation medium was layered over prior to additional centrifugation at 1200 rpm for 30 minutes. Sedimented cells were washed once with 35 mL of saline and RBCs were lysed by resuspension in 1.8 mL of sterile H2O for 15 seconds. Isotonicity was restored with the addition of 0.2 mL of 10×HBSS− followed by the addition of 35 mL of saline. Centrifugation at 1500 rpm for 5 minutes was then performed. Following final washing of the PMN pellet with 35 mL of saline, cell viability was determined via trypan blue exclusion and cell number was determined.
(§4) 0.5×10^6 PMNs per sample were incubated in 96-well Millipore Multiscreen 0.65 um filter plates. In a final volume of 150 uL, 50 uL of the respective fMLP analogues (10 uM to 1 pM) and/or fMLP (10 uM to 1.0 uM) were incubated with isolated PMNs pre-treated with cytochalasin B (5 ug/mL) for 10 minutes. Following a 30 minute incubation period at room temperature, the supernatant was collected into a 96-well polypropylene plate with the Millipore vacuum apparatus. A stock solution of o-phenylenediamine (OPD) was made to contain 2.5 mg of OPD, 5 ul of H2O2 and 10 mL HBSS+ and supernatant samples were subsequently incubated with 50 uL of OPD solution. The reaction was stopped after 2 minutes by the addition of 2.5M H2SO4. Photometric analysis was performed with the Thermomax Microplate Reader with optical density (O.D.490) values being read at a wavelength of 490 nm. Absorbance was measured against a blank containing 150 μl of HBSS+ which was subtracted from wells containing cells and the various treatments. MPO release was expressed as a percentage of the total release of myeloperoxidase in control wells containing cells ±fMLF.

[3] = tested on: elicited rat PMNs; assay: Myeloperoxidase release in elicited rat PMNs co-stimulated with 0.1 uM fMLF; format: cell-based; details: for antagonist function on MPO release in fMLF stimulated rat PMNs: 0.1 uM fMLF, inhibition at 10 uM, result in words; for % Control MPO release (1 uM capping group + 0.1 uM fMLF): 1 uM test peptide + 0.1 uM fMLF; for % Control MPO release (1 uM capping group + 0.1 uM fMLF) / % Control MPO Release (10 uM capping group + 0.1 uM fMLF): ± S.E.M.; for % Control MPO Release (10 uM capping group + 0.1 uM fMLF): 10 uM test peptide + 0.1 uM fMLF
Procedure: as §1, §2
as §4, with “In a final volume of 150 uL, 50 uL of the respective fMLP analogues (10 uM to 1 pM) and/or fMLP (10 uM to 1.0 uM) were incubated with isolated PMNs pre-treated with cytochalasin B (5 ug/mL) for 10 minutes.” left out

[4] = tested on: elicited rat PMNs; format: cell-based; details: MPO release, PMNs without fMLF, ± S.E.M.; for % Control (1 uM): test peptide 1 uM; for % Control (10 uM): test peptide 10 uM
Procedure: as §1, §2, §4, §3

Row | Molecule | IC50 ([1]; elicited rat PMNs, 6 nM 3H-fMLF, 4° C. 1 hour, brackets = 95% confidence interval, read-out: Receptor Binding (IC50)) [µM] | inhibition of MPO release in fMLF-stimulated human neutrophils (FIG. 4) [2] | stimulation of MPO release by the compound itself in human neutrophils [2] | antagonist function on MPO release in fMLF stimulated rat PMNs [3] | % Control MPO release (1 uM capping group + 0.1 uM fMLF) [3] [% control] | % Control MPO Release (10 uM capping group + 0.1 uM fMLF) [3] [% control] | % Control (1 uM) [4] [% control] | % Control (10 uM) [4] [% control] | competition binding of N-terminal modified NleLFK peptides (FIG. 8) ([1]; 6 nM 3H-fMLF, result in words) | inhibition of 3H-fMLF binding at 10 uM compared with iso-BocMLFK (FIG. 8) ([1]; peptide 10 uM, 6 nM 3H-fMLF, result in words) | competition binding of N-terminal modified NleLFK peptides (FIG. 8) ([1]; 6 nM 3H-fMLF, result in words, listed as 6) | competition binding of N-terminal modified NleLFK peptides (FIG. 8) ([1]; 6 nM 3H-fMLF, result in words, listed as N,N-diethylcarbamoyl-NleLFK) | binding affinity, fold greater than N-t-BocMLF ([1]; from rat FPR IC50 values)
1 | CSCC[C@H](NC(=O)OC(C)(C)C)C(=O)N[C@@H](CC(C)C)C(=O)N[C@@H](Cc1ccccc1)C(=O)O [N-t-BocMLF, N-tert-butyloxycarbonylated-methionyl-leucyl-phenylalanine, reference compound] | 9.3 | inhibited MPO release from fMLF stimulated cells | did not induce release |  |  |  |  |  |  |  |  |  | 
2 | Capping Group 16: Fluorenylmethylcarbonyl N-terminal capping group attached to peptide NleLFK ({Acetyl(9-fluorenyl)}-[Nle]LFK) |  |  |  | exhibited antagonist function in fMLF stimulated cells | 161.7 ± 6.2 | 108.9 ± 28.5 | 84.1 ± 27.6 | 59.9 ± 19.0 | did not significantly decrease the amount of ^3H-fMLF binding |  |  |  | 
3 | Capping Group 18: N,N-diphenylcarbamoyl N-terminal capping group attached to peptide NleLFK ({N,N‑diphenylcarbamoyl}-[Nle]LFK) |  |  |  |  | 321.6 ± 8.6 | 185.9 ± 15.7 | 142.7 ± 8.8 | 125.2 ± 1.5 | do not nullify binding affinity | inhibited ^3H-fMLF binding to a degree comparable with known antagonist iso-BocMLFK |  |  | 
4 | N,N-diethylcarbamoyl-NleLFK ({N,N‑diethylcarbamoyl}-[Nle]LFK) [Capping Group 6] |  |  |  | inhibited MPO release | 283.3 ± 25.1 | 249.9 ± 6.2 | 113.8 ± 14.3 | 109.6 ± 3.3 |  |  | did not significantly decrease the amount of ^3H-fMLF binding | inhibit ^3H-fMLF binding | 
5 | ReO-CyclopropylCONH-nleu-leu-phe-trp-glu-lys(dimethylgly-t-butylgly-cys-gly)-gly-OH (Cyclopropanecarbonyl-[Nle]LFWEKG-OH; not fully specified (residue 6); printed as ReO-CyclopropylCONH-nleu-leu-phe-trp-glu-lys(dimethylgly-t-butylgly-cys-gly)-gly-OH; also: ReO chelate on Lys side chain) [ReORP553 17-01] |  | significantly inhibited the release of MPO | did not stimulate MPO release |  |  |  |  |  |  |  |  |  | approximately 12 fold
